Laboratory results reported in patent US9738612B2, “Methylacryloyl benzimidazolone derivative and anti-tumour use thereof” (SHANGHAI NATURE STANDARD R&D AND BIOTECH CO., LTD, priority 2014, dated 2017).

Legend:
Hela cell = test: Sulforhodamine B proliferation; format: cell-based; conditions: Homo sapiens, SRB method of Example 2, FIG. 3, read-out: Half inhibitory concentration to Hela cell proliferation
Experimental: At a certain density cells were seeded in 96-well plates, and adhered overnight. The medium was discarded after incubating cells with compounds to be tested for 72 h, then 100μL/well trichloroacetic acid (TCA) was added to fix cells at 4° C. for 2h. After that the fixing solution was discarded. Cells were gently washed 5 times with distilled water, dried at room temperature. Cells were stained with 4 mg/mL SRB staining solution (100 μL/well) at room temperature for 15min. The staining solution was discarded, and cells were washed five times with 1% acetic acid (HAC) and dried at room temperature. To the plate tris base buffer (10 mM) was added at 150 μL/well and placed at room temperature for 15min. The OD values were measured at 540 nm wavelength in a microplate reader. Inhibitory rate (%)=(OD valuecontrol wells−OD valuedrugs treated wells)/OD valuecontrol wells×100%.
In the present invention the inhibition of a representative compound FD162 to the proliferation of more than 20 tumor cell lines were tested, and the experimental methods were the same as that described in Example 2.

Yes(h) = biological target: T1, Yes(h) (Homo sapiens, UniProt P07947); test: Tumor-associated kinase inhibition test; format: biochemical; conditions: read-out: Inhibitory rate (%)
T1 construct: purchased Eurofins Pharma Discovery Services UK Limited
Source text: (§1) Eurofins Pharma Discovery Services UK Limited completed and reported this experiment.

Tie2(h) = biological target: T2, Tie2(h) (Homo sapiens, UniProt Q02763); test: Tumor-associated kinase inhibition test; format: biochemical; conditions: read-out: Inhibitory rate (%)
T2 construct: purchased Eurofins Pharma Discovery Services UK Limited
T2 sequence (Q02763 23-1124): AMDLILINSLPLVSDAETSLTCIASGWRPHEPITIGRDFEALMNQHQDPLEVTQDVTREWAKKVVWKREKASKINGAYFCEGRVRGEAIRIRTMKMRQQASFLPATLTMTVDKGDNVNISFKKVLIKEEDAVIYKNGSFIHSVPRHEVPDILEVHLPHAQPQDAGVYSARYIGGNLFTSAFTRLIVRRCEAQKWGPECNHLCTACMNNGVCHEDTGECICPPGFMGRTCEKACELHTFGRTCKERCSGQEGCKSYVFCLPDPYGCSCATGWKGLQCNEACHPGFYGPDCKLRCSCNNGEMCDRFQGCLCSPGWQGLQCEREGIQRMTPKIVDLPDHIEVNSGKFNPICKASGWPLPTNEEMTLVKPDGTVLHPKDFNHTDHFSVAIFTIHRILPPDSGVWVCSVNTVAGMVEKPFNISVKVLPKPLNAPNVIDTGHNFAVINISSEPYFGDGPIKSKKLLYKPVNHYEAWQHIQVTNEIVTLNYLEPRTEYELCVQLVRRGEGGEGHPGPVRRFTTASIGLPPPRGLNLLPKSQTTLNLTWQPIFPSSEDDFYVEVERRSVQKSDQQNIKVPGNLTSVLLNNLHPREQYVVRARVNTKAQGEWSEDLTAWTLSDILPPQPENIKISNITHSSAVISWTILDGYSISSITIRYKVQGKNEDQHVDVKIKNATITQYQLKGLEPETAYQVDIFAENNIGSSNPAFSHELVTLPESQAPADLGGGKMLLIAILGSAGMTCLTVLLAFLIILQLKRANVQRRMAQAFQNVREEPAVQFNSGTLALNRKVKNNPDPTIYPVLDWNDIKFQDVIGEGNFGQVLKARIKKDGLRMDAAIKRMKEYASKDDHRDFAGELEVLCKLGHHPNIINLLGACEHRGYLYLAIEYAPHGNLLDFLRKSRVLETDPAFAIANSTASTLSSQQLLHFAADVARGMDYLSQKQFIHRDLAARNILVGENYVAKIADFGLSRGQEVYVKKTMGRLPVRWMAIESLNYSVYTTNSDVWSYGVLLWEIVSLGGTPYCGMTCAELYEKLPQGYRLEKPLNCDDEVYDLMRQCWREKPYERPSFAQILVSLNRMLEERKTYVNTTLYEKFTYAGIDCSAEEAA
Source text: as §1

Fes(h) = biological target: T3, Fes(h) (Homo sapiens, UniProt P07332); test: Tumor-associated kinase inhibition test; format: biochemical; conditions: read-out: Inhibitory rate (%)
T3 construct: purchased Eurofins Pharma Discovery Services UK Limited (contract testing)
Source text: as §1

CaMKI(h) = biological target: T4, CaMKI(h) (Homo sapiens, UniProt Q14012); test: Tumor-associated kinase inhibition test; format: biochemical; conditions: read-out: Inhibitory rate (%)
T4 construct: purchased Eurofins Pharma Discovery Services UK Limited (contract assay service)
T4 sequence (Q14012 whole entry): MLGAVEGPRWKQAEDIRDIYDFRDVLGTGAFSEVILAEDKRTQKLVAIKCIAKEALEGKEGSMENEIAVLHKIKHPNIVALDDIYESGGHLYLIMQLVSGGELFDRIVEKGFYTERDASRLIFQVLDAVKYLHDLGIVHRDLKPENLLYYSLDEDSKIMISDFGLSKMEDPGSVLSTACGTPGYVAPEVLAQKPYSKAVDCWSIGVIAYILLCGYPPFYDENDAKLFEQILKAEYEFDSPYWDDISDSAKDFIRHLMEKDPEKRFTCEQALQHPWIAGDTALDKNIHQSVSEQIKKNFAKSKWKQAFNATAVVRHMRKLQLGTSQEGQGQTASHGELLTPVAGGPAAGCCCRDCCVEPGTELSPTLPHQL
Source text: as §1

CaMKIV(h) = biological target: T5, CaMKIV(h) (Homo sapiens, UniProt Q16566); test: Tumor-associated kinase inhibition test; format: biochemical; conditions: read-out: Inhibitory rate (%)
T5 construct: purchased Eurofins Pharma Discovery Services UK Limited (contract assay service)
Source text: as §1

PKCγ(h) = biological target: T6, PKCγ(h) (Homo sapiens, UniProt P05129); test: Tumor-associated kinase inhibition test; format: biochemical; conditions: read-out: Inhibitory rate (%)
T6 construct: purchased Eurofins Pharma Discovery Services UK Limited
Source text: as §1

CDK6/cyclinD3(h) = biological target: T7, CDK6/cyclinD3(h) (Homo sapiens, UniProt Q00534); test: Tumor-associated kinase inhibition test; format: biochemical; conditions: read-out: Inhibitory rate (%)
T7 construct: purchased Eurofins Pharma Discovery Services UK Limited (contract assay service)
Source text: as §1

PKCμ(h) = biological target: T8, PKCμ(h) (Homo sapiens, UniProt Q15139); test: Tumor-associated kinase inhibition test; format: biochemical; conditions: read-out: Inhibitory rate (%)
T8 construct: purchased Eurofins Pharma Discovery Services UK Limited
Source text: as §1

Ron(h) = biological target: T9, Ron(h) (Homo sapiens, UniProt Q04912); test: Tumor-associated kinase inhibition test; format: biochemical; conditions: read-out: Inhibitory rate (%)
T9 construct: purchased Eurofins Pharma Discovery Services UK Limited
Source text: as §1

CSK(h) = biological target: T10, CSK(h) (Homo sapiens, UniProt P41240); test: Tumor-associated kinase inhibition test; format: biochemical; conditions: read-out: Inhibitory rate (%)
T10 construct: purchased Eurofins Pharma Discovery Services UK Limited (contract testing)
T10 sequence (P41240 whole entry): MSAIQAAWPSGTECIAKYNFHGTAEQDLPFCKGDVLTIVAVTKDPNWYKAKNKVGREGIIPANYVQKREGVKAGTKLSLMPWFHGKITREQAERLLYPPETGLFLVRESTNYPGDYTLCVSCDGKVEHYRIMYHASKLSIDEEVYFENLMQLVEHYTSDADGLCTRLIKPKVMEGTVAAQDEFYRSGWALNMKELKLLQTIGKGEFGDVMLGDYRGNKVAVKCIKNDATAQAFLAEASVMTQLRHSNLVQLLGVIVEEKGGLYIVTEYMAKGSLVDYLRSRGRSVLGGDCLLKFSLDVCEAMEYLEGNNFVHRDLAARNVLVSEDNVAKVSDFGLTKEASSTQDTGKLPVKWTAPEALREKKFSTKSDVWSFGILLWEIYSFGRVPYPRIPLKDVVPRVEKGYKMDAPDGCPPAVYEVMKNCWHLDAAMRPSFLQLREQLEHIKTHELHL
Source text: as §1

PKCι(h) = biological target: T11, PKCι(h) (Homo sapiens, UniProt P41743); test: Tumor-associated kinase inhibition test; format: biochemical; conditions: read-out: Inhibitory rate (%)
T11 construct: purchased Eurofins Pharma Discovery Services UK Limited
Source text: as §1

PKCζ(h) = biological target: T12, PKCζ(h) (Homo sapiens, UniProt Q05513); test: Tumor-associated kinase inhibition test; format: biochemical; conditions: read-out: Inhibitory rate (%)
T12 construct: purchased Eurofins Pharma Discovery Services UK Limited
Source text: as §1

Rsk2(h) = biological target: T13, Rsk2(h) (Homo sapiens, UniProt P51812); test: Tumor-associated kinase inhibition test; format: biochemical; conditions: read-out: Inhibitory rate (%)
T13 construct: purchased Eurofins Pharma Discovery Services UK Limited
Source text: as §1

PIP5K1γ(h) = biological target: T14, PIP5K1γ(h) (Homo sapiens, UniProt O60331); test: Tumor-associated kinase inhibition test; format: biochemical; conditions: read-out: Inhibitory rate (%)
T14 construct: purchased Eurofins Pharma Discovery Services UK Limited (contract assay)
Source text: as §1

MARK1(h) = biological target: T15, MARK1(h) (Homo sapiens, UniProt Q9P0L2); test: Tumor-associated kinase inhibition test; format: biochemical; conditions: read-out: Inhibitory rate (%)
T15 construct: purchased Eurofins Pharma Discovery Services UK Limited
T15 sequence (Q9P0L2 whole entry): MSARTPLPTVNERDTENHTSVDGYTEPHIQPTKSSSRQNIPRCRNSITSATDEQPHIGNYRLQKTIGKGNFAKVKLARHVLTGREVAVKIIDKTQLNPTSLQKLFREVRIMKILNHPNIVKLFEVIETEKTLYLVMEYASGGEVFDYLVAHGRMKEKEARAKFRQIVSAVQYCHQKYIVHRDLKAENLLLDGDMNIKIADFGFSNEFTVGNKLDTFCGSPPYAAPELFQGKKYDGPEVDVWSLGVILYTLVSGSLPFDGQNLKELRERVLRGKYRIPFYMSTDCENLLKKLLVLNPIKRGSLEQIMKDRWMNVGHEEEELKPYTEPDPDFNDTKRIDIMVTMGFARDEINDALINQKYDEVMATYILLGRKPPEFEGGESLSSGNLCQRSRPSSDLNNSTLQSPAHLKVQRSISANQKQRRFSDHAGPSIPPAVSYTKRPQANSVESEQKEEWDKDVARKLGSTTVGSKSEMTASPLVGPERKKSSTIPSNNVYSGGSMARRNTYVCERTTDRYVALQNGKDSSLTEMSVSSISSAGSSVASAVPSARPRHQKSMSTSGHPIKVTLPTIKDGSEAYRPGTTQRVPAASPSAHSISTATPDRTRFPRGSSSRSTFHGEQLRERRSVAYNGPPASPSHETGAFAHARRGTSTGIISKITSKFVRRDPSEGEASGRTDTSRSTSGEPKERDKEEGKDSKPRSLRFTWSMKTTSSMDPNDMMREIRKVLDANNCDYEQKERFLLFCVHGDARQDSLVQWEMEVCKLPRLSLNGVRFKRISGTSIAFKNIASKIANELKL
Source text: as §1

PRK2(h) = biological target: T16, PRK2(h) (Homo sapiens, UniProt Q16513); test: Tumor-associated kinase inhibition test; format: biochemical; conditions: read-out: Inhibitory rate (%)
T16 construct: purchased Eurofins Pharma Discovery Services UK Limited
T16 sequence (Q16513 whole entry): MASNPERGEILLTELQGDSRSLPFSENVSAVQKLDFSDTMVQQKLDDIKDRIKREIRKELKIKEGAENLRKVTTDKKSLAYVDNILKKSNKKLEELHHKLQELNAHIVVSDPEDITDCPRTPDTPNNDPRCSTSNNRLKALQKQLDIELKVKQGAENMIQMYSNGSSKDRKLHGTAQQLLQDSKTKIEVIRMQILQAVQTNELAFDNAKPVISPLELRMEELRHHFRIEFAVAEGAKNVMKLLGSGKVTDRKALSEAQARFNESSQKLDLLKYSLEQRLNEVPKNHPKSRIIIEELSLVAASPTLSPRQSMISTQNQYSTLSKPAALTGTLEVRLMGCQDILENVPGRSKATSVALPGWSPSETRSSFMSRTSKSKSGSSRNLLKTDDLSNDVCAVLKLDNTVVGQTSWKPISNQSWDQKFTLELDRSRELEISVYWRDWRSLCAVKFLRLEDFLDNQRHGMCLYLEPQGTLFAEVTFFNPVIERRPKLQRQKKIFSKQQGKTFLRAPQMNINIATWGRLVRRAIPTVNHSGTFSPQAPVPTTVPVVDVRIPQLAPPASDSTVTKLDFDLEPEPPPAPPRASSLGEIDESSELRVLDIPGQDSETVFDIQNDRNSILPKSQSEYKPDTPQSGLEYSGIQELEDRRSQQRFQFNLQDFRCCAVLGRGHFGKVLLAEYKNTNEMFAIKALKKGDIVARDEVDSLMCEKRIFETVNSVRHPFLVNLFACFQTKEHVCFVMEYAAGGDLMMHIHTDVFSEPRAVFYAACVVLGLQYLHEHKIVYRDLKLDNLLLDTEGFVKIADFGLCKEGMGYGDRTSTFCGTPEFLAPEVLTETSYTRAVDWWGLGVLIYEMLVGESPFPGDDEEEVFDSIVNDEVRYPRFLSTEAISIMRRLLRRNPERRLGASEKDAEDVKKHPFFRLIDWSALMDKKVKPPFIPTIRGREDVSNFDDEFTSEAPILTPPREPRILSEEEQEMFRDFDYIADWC
Source text: as §1

JNK2α2(h) = biological target: T17, JNK2α2(h) (Homo sapiens, UniProt P45984); test: Tumor-associated kinase inhibition test; format: biochemical; conditions: read-out: Inhibitory rate (%)
T17 construct: purchased Eurofins Pharma Discovery Services UK Limited (contract testing)
Source text: as §1

[1] = biological target: T18, PI3Kinase(p110α(H1047R)/p85α)(h) (Homo sapiens, UniProt P42336, H1047R); test: Tumor-associated kinase inhibition test; format: biochemical; conditions: read-out: Inhibitory rate (%)
T18 construct: purchased Eurofins Pharma Discovery Services UK Limited (contract assay)
Source text: as §1

Arg(h) = biological target: T19, Arg(h) (Homo sapiens, UniProt P42684); test: Tumor-associated kinase inhibition test; format: biochemical; conditions: read-out: Inhibitory rate (%)
T19 construct: purchased Eurofins Pharma Discovery Services UK Limited (contract assay service)
Source text: as §1

PI3Kinase(p110α/p85α)(h) = biological target: T20, PI3Kinase(p110α/p85α)(h) (Homo sapiens, UniProt P42336); test: Tumor-associated kinase inhibition test; format: biochemical; conditions: read-out: Inhibitory rate (%)
T20 construct: purchased Eurofins Pharma Discovery Services UK Limited (contract assay)
Source text: as §1

PKCβII(h) = biological target: T21, PKCβII(h) (Homo sapiens, UniProt P05771); test: Tumor-associated kinase inhibition test; format: biochemical; conditions: read-out: Inhibitory rate (%)
T21 construct: purchased Eurofins Pharma Discovery Services UK Limited
Source text: as §1

LKB1(h) = biological target: T22, LKB1(h) (Homo sapiens, UniProt Q15831); test: Tumor-associated kinase inhibition test; format: biochemical; conditions: read-out: Inhibitory rate (%)
T22 construct: purchased Eurofins Pharma Discovery Services UK Limited
Source text: as §1

PKA(h) = biological target: T23, PKA(h) (Homo sapiens, UniProt P17612); test: Tumor-associated kinase inhibition test; format: biochemical; conditions: read-out: Inhibitory rate (%)
T23 construct: purchased Eurofins Pharma Discovery Services UK Limited
Source text: as §1

B-Raf(V599E)(h) = biological target: T24, B-Raf(V599E)(h) (Homo sapiens, UniProt P15056, V600E); test: Tumor-associated kinase inhibition test; format: biochemical; conditions: read-out: Inhibitory rate (%)
T24 construct: purchased Eurofins Pharma Discovery Services UK Limited (contract assay service)
T24 sequence (P15056 416-766 V600E limits assumed): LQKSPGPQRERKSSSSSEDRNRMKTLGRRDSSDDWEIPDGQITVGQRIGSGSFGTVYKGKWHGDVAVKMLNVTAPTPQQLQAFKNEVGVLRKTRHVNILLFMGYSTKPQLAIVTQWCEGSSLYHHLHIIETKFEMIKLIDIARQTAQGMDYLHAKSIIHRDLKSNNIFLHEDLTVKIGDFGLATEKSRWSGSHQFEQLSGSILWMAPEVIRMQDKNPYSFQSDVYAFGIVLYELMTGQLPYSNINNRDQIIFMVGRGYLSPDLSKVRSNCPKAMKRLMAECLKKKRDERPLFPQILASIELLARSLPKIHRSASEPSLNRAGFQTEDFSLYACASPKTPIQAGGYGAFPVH
Source text: as §1

CHK2(h) = biological target: T25, CHK2(h) (Homo sapiens, UniProt O96017); test: Tumor-associated kinase inhibition test; format: biochemical; conditions: read-out: Inhibitory rate (%)
T25 construct: purchased Eurofins Pharma Discovery Services UK Limited (contract assay service)
Source text: as §1

CDK2/cyclinA(h) = biological target: T26, CDK2/cyclinA(h) (Homo sapiens, UniProt P24941); test: Tumor-associated kinase inhibition test; format: biochemical; conditions: read-out: Inhibitory rate (%)
T26 construct: purchased Eurofins Pharma Discovery Services UK Limited (contract assay service)
Source text: as §1

PAK2(h) = biological target: T27, PAK2(h) (Homo sapiens, UniProt Q13177); test: Tumor-associated kinase inhibition test; format: biochemical; conditions: read-out: Inhibitory rate (%)
T27 construct: purchased Eurofins Pharma Discovery Services UK Limited
T27 sequence (Q13177 whole entry): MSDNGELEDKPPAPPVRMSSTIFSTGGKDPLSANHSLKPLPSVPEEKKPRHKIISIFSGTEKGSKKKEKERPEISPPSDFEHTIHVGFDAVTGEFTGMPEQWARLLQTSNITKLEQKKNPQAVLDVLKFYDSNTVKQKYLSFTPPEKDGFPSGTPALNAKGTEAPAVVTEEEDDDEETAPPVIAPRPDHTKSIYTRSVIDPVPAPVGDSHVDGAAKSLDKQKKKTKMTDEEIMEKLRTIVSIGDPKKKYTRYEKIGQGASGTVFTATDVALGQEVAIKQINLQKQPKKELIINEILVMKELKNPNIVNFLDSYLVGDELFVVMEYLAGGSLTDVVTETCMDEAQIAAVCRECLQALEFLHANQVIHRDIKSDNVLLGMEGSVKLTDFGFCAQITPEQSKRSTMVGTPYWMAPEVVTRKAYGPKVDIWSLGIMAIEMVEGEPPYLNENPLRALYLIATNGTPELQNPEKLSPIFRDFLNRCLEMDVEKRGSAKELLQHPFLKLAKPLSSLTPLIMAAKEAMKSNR
Source text: as §1

PKD2(h) = biological target: T28, PKD2(h) (Homo sapiens, UniProt Q9BZL6); test: Tumor-associated kinase inhibition test; format: biochemical; conditions: read-out: Inhibitory rate (%)
T28 construct: purchased Eurofins Pharma Discovery Services UK Limited
Source text: as §1

FAK(h) = biological target: T29, FAK(h) (Homo sapiens, UniProt Q05397); test: Tumor-associated kinase inhibition test; format: biochemical; conditions: read-out: Inhibitory rate (%)
T29 construct: purchased Eurofins Pharma Discovery Services UK Limited (contract testing)
Source text: as §1

PRAK(h) = biological target: T30, PRAK(h) (Homo sapiens, UniProt Q8IW41); test: Tumor-associated kinase inhibition test; format: biochemical; conditions: read-out: Inhibitory rate (%)
T30 construct: purchased Eurofins Pharma Discovery Services UK Limited
T30 sequence (Q8IW41 whole entry): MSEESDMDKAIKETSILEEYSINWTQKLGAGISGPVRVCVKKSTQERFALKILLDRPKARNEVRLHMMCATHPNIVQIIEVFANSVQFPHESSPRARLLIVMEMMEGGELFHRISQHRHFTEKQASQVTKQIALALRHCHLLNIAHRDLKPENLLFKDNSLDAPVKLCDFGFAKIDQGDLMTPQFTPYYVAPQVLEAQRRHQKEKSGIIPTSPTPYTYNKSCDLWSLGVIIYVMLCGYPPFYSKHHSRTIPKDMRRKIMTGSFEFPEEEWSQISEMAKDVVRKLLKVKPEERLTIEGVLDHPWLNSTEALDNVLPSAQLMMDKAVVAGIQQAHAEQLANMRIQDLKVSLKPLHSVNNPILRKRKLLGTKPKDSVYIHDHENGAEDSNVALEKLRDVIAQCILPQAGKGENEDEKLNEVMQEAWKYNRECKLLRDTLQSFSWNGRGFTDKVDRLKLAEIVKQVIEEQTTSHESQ
Source text: as §1

Bmx(h) = biological target: T31, Bmx(h) (Homo sapiens, UniProt P51813); test: Tumor-associated kinase inhibition test; format: biochemical; conditions: read-out: Inhibitory rate (%)
T31 construct: purchased Eurofins Pharma Discovery Services UK Limited (contract assay service)
Source text: as §1

[2] = biological target: T32, PI3Kinase(p110α(E545K)/p85α)(h) (Homo sapiens, UniProt P42336, E545K); test: Tumor-associated kinase inhibition test; format: biochemical; conditions: read-out: Inhibitory rate (%)
T32 construct: purchased Eurofins Pharma Discovery Services UK Limited (contract assay)
Source text: as §1

C=C(C)n1c(=O)n(C(C)=O)c2ncc(Br)cc21 [FD162]
IC50 (Hela cell): 3.67 µM
inhibition at 10 µM (Yes(h)): -2%
inhibition at 10 µM (Tie2(h)): 14%
inhibition at 10 µM (Fes(h)): -8%
inhibition at 10 µM (CaMKI(h)): -1%
inhibition at 10 µM (CaMKIV(h)): 2%
inhibition at 10 µM (PKCγ(h)): 11%
inhibition at 10 µM (CDK6/cyclinD3(h)): -1%
inhibition at 10 µM (PKCμ(h)): 6%
inhibition at 10 µM (Ron(h)): 8%
inhibition at 10 µM (CSK(h)): -12%
inhibition at 10 µM (PKCι(h)): 11%
inhibition at 10 µM (PKCζ(h)): 5%
inhibition at 10 µM (Rsk2(h)): 4%
inhibition at 10 µM (PIP5K1γ(h)): -1%
inhibition at 10 µM (MARK1(h)): -1%
inhibition at 10 µM (PRK2(h)): -9%
inhibition at 10 µM (JNK2α2(h)): 3%
inhibition at 10 µM [1]: 3%
inhibition at 10 µM (Arg(h)): -7%
inhibition at 10 µM (PI3Kinase(p110α/p85α)(h)): -1%
inhibition at 10 µM (PKCβII(h)): 6%
inhibition at 10 µM (LKB1(h)): 8%
inhibition at 10 µM (PKA(h)): -5%
inhibition at 10 µM (B-Raf(V599E)(h)): -1%
inhibition at 10 µM (CHK2(h)): 4%
inhibition at 10 µM (CDK2/cyclinA(h)): -2%
inhibition at 10 µM (PAK2(h)): 8%
inhibition at 10 µM (PKD2(h)): 11%
inhibition at 10 µM (FAK(h)): 1%
inhibition at 10 µM (PRAK(h)): 10%
inhibition at 10 µM (Bmx(h)): -7%
inhibition at 10 µM [2]: 4%
